Here are results for two compounds from patent publication US7189745B1, “Compounds” (SmithKline Beecham Corporation, priority 1999, dated 2007).

One assay concerns the target T1, activated tie 2 kinase (Homo sapiens, UniProt Q02763).
T1 construct: a baculovirus expressed GST fusion for Tie2 kinase domain was constructed and expressed using the commercial vector pAcG I (Pharmingen); GST; made in house
As to the kind of experiment: Fluorescence polarization for Tie 2 kinase. The class given is biochemical. The settings on record: fluorescence polarization assay, 250 uM ATP, 10 uM peptide substrate. On the procedure:
2. Fluorescence Polarization for Tie 2 Kinase
2% DMSO (when screening compounds)
activated tie 2 kinase * see activation protocol below
For a 50 ul reaction add the following to each well of a 96-well black half-area plate (Costar, cat# 3694) • 1.5 ul of compound in 20% DMSO • 5 ul 9× kinase buffer. • 5 ul 2.5 mM ATP. • 5 ul 100 uM peptide substrate. • 25 ul PTK detection mix (Panvera, P-2652, 50 ml—UK distributor is Cambridge Bioscience) • 5 ul activated tie 2 kinase (protocol below) diluted in 1× buffer to initiate the reaction. • 7. Read polarization on an FP instrument cycling for 30–50 minutes in accordance with enzyme activity.
Activation of Tie 2 Kinase Protocol:
• 1. Incubate 5 uM tie 2 kinase in the 300 uM ATP and the buffering conditions described above. • 2. Allow to incubate at 27° C. for 2 hours. • 3. Add 2.5 ml reaction to a NAP-25 desalting column (Pharmacia Biotech cat. no. 17-0852-02) pre-equilibrated in 20 mM Tris-HCl pH 7.5, 100 mM NaCl2 to separate the ATP from the enzyme. • 4. Elute the enzyme with 5.0 ml 20 mM Tris-HCl pH 7.5, 100 mM NaCl2; the protein concentration should be 2.5 uM at this point. • 5. Aliquot out the enzyme and store at −80° C. as soon as possible. B. Measurement of Tie2 Receptor Signal Transduction—a Cellular Assay

The next assay has as its target T2, Tie2 kinase (Homo sapiens, UniProt Q02763).
T2 construct: a baculovirus expressed GST fusion for Tie2 kinase domain was constructed and expressed using the commercial vector pAcG I (Pharmingen); GST; made in house
Put plainly: Tie2 kinase autophosphorylation flashplate assay. The class given is biochemical. The settings on record: ATP final 30 uM. From the text: A partial cDNA clone for the Tie2 receptor was used to make protein for Tie kinase studies. In order to generate the primary screening assay, a baculovirus expressed GST fusion for Tie2 kinase domain was constructed and expressed using the commercial vector pAcG I (Pharmingen).
This final construct was transfected into Baculovirus and soluble GST fusion products used in the screening assay.
Tie2 kinase activity assay: The Tie2 kinase activity assay was typically run in one of 2 ways described as follows. Minor variations in the assay give similar results.
1. Autophosphorylation flashplate assay
Kinase buffer (final 20 mM Tris-HCl, pH7.0, 100 mM NaCl, 12 mM MgCl2, 1 mM DTT).
Gamma ^33p-ATP (usually final amount of 0.5–1 uCi/well)
ATP (final 30 uM, or other desired concentration)
Flashplate (96-well, polystyrene microplate with plastic scintillator coated wells)
TopCount (microplate scintillation counter)
Turn on incubator shaker and adjust temperature to 30° C.
Add 20 ul of 3× kinase buffer per well to the Flashplate
Add 20 ul of protein per well except for background. Compounds added, typically in DMSO stocks, at 1–2 ul.
Add 20 ul mixture of gamma ^33p-ATP and cold ATP per well.
Cover with transparent polyester film.
Incubate at 30° C. for two hours in shaker, or desired time. […]
Read plate on TopCount or other counting instrument. Results are calculated as % inhibition […]

The test system of assay [1] is angiogenesis (vascular density) in air pouch granuloma. As to the kind of experiment: Murine air pouch granuloma model of inflammatory angiogenesis. The class given is in vivo, mice. The conditions noted are these: positive control. The text has this:
Measurement of Angiogenesis In Vivo—Murine Air Pouch Granuloma Model:
The murine airpouch granuloma model of chronic inflammation (Kimura et al., 1985, J. Pharmacobio-Dyn., 8:393–400; Colville-Nash et al., 1995, J. Pharm. and Exp. Ther., 274:1463–1472) whose disclosure is incorporated herein by reference in its entirety, is characterized by inflammatory cell influx, fibrous tissue proliferation and intense angiogenesis. […] In addition, angiogenesis can be accurately quantitated by a vascular casting method.
Day 1, mice are anesthetized using Aerrane (isoflurane) gas (5%) or other approved methods, after which 3 mls of air is injected into the dorsal subcutaneous tissue using a 27 g needle. Mice are allowed to recover. […]
When the granuloma is removed it is weighed and then dried for 3 days at 45° C. and reweighed. […] The carmine content is then determined against a carmine red standard curve (0.5 to 2 mg/ml) generated in extracted tissue from non carmine treated animals and read at 490 nm. Sample and standard values are determined typically using DeltaSoft Elisa analysis software (Biometallics Inc., Princeton, N.J.). […]
The effect of compounds on vascular density was typically measured for 6 days after induction of the granuloma. This time point has been determined to be at or near the peak of angiogenesis. […] Medroxyprogesterone had no effect on granuloma size as measured by dry weight.

pIC50: −log10 of the molar value.

T2 sequence (Q02763 824-1096 limits assumed): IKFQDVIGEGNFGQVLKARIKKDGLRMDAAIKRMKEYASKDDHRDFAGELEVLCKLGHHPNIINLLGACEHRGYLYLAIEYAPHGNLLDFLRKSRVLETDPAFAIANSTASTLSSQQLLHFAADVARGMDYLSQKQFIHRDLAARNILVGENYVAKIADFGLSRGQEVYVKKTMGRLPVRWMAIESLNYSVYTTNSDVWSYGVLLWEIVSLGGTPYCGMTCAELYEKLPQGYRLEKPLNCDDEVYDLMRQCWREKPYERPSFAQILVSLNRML
T1 sequence (Q02763 824-1096 limits assumed): as above

One may read the pIC50 as the negative decadic logarithm of the IC50, by convention in mol/L. High values mean a small IC50, low ones a large IC50. In the case of `COc1ccc2cc(-c3nc(C(C)(C)CNC(=O)OC(C)(C)C)[nH]c3-c3ccncc3)ccc2c1` [Example 1, (2-(4-(6-methoxynapthalen-2-yl)-5-pyridin-4-yl-1H-imidazol-2-yl)-2-methyl-propyl)-carbamic acid tert-butyl ester], the pIC50 at activated tie 2 kinase and against Tie2 kinase was above 6.00 throughout.

On to medroxyprogesterone, for which the “maximum reduction (vascular density)” value in assay [1] (measured 6 days after induction of the granuloma) is given as 50%. Also, the “effect on granuloma size as measured by dry weight” value in assay [1] (murine air pouch granuloma) is “no effect”.
